Data published in US20050209288A1, “Compositions comprising (S)-amlodipine malate and an angiotensin receptor blocker and methods of their use” (priority 2004, published 2005).

Key:
Format in all cases: in vivo, rat
rats [1] = details: anesthetized rats, 100 μg/kg i.v.
Experimental: (§1) (S)-amlodipine malate and seven ARBs (candasartan, eprosartan, irbesartan, losartan, olmesartan, telmisartan and valsartan) were evaluated. The study was conducted in three parts. Phase I evaluated the time-course of the hypotensive actions of all eight agents ([S]-amlodipine and the seven ARBs). In Phase II, the dose-responsive effects of [S]-amlodipine malate and the seven ARBs were evaluated individually. From this phase of the study, ED30 and ED50 doses of each of the seven ARBs were identified, defined as the dose that produced 30 or 50 percent of the hypotensive effect produced by a rapid i.v. injection (30 μg/kg) of sodium nitroprusside (NTP), a short-acting vasodilator. In Phase III, the dose response to [S]-amlodipine was evaluated in the presence and absence of the ED30 and ED50 dose of each of the seven ARBs, with the objective of comparing the extent to which each ARB, at its ED30 or ED50, shifted the dose-response curve of [S]-amlodipine to the left and thus, lowering the apparent ED50 of the calcium channel blocker.
Animals were anesthetized with thiobutabarbital sodium (Inactin®, 150 mg/kg, delivered i.p.), tracheotomized and placed on a thermostatically controlled heating pad (37-38° C.). The jugular vein and the carotid artery were cannulated with PE-50 tubing for drug administration and recording of cardiovascular parameters, respectively. Blood pressure was recorded from the carotid artery by means of a pressure transducer and heart rate was derived electronically from the blood pressure signal. The signal output derived electronically from the arterial pressure was analyzed with a digital computer. The software IOX-16 continuously recorded the data every 5 sec during the entire procedure for each rat. Raw arterial pressure (in mmHg) and heart rate (beats per min), as well as changes in these two parameters relative to baseline or pre-drug levels (for doses other than initial dose), both in raw units (mm Hg or beats per min [bpm]) and as percentage change from baseline were captured and analyzed. […]

rats [2] = assay: Phase II: dose-response of hypotensive effect, ED30/ED50 relative to sodium nitroprusside
Experimental: as §1
(§2) Animals were anesthetized with thiobutabarbital sodium (Inactin®, 150 mg/kg, delivered i.p.), tracheotomized and placed on a thermostatically controlled heating pad (37-38° C.). The jugular vein and the carotid artery were cannulated with PE-50 tubing for drug administration and recording of cardiovascular parameters, respectively. Blood pressure was recorded from the carotid artery by means of a pressure transducer and heart rate was derived electronically from the blood pressure signal. The signal output derived electronically from the arterial pressure was analyzed with a digital computer. The software IOX-16 continuously recorded the data every 5 sec during the entire procedure for each rat. Raw arterial pressure (in mmHg) and heart rate (beats per min), as well as changes in these two parameters relative to baseline or pre-drug levels (for doses other than initial dose), both in raw units (mm Hg or beats per min [bpm]) and as percentage change from baseline were captured and analyzed. The animals were allowed to equilibrate for 15-20 min before any treatment.
(§3) Doses are expressed in terms of free active substance. Each treatment was administered in a volume of 1 mL/kg by slow (over 20-30 seconds) i.v. bolus for all test articles, in all three phases.
(§4) The data were reported as mean ±S.E.M. (standard error of the mean) from 3-5 rats per group. Raw arterial pressure (in mmHg) and heart rate (beats per min), as well as changes in these two parameters relative to baseline or pre-drug levels (for doses other than initial dose), both in raw units (mmHg or beats per min [bpm]) and as percentage change from baseline, were captured and analyzed.
(§5) ED30 and ED50 for each drug were defined as the dose causing a decline in arterial pressure corresponding to 30% and to 50%, respectively, of the maximal drop in blood pressure produced by fast bolus i.v. injection (30 μg/kg) of sodium nitroprusside.
In this phase, the hypotensive response to sodium nitroprusside (NTP, 30 μg/kg, i.v. bolus), which was injected once at the end of the equilibration period, was used as a comparator and ED30 and ED50 doses were estimated as the percentage of the maximum NTP effect.

rats [3] = assay: Phase III: dose response to (S)-amlodipine malate in absence and presence of an ARB (co-administration); details: for dose response curve of ARB plus (S)-amlodipine malate relative to (S)-amlodipine malate alone: ARB at its ED30 dose; for Potential Dosage Adjustment (%) of (S)-amlodipine malate (adjustment factor): co-administration with the named ARB, relative to ED50 92 μg/kg alone
Experimental: as §1, §2, §3, §4, §5
Dose-response curves with (S)-amlodipine malate in the absence and presence of each of the seven ARBs at its ED30 are shown in FIGS. 1A and 1B. The data shown in the figures are from experiments in which ED30 doses of each of the ARBs was combined with (S)-amlodipine malate. These were chosen because ED30 doses were obtainable by direct interpolation of dose response curves from Phase II. For several of the ARBs, doses corresponding to ED50 were obtained from extrapolation of their dose response curves.

[4] = i.v., anesthetized rats, from dose-response curve

CCOC(=O)C1=C(COCCN)NC(C)=C(C(=O)OC)[C@@H]1c1ccccc1Cl.O=C(O)C[C@H](O)C(=O)O [(S)-amlodipine malate]
maximum decrease in blood pressure (rats [1]): 14-17 mmHg
time to maximum hypotensive effect post-injection (rats [1]): 35 to 55 min
ED30 (dose causing 30% of the maximal drop in blood pressure produced by sodium nitroprusside) (rats [2]; [4]): 0.056 mg/kg
ED50 (dose causing 50% of the maximal drop in blood pressure produced by sodium nitroprusside), estimated (rats [2]; [4]): 0.11 mg/kg
ED50 of (S)-amlodipine malate in the absence of an ARB (rats [3]; i.v., anesthetized rats, Phase III): 0.092 mg/kg

CCOc1nc2cccc(C(=O)O)c2n1Cc1ccc(-c2ccccc2-c2nnn[nH]2)cc1 [Candasartan, 2-ethoxy-1-[[2′-(1H-tetrazol-5-yl)[1,1′-biphenyl]-4-yl]methyl]-1H-benzimidazole-7-carboxylic acid]
decline in MBP at the next higher dose (rats [2]; 300 mg/kg i.v. (so in the source)): no further decline
ED30 (dose causing 30% of the maximal drop in blood pressure produced by sodium nitroprusside) (rats [2]; [4]): 0.008 mg/kg
dose response curve of ARB plus (S)-amlodipine malate relative to (S)-amlodipine malate alone (rats [3]): offset

CCCCc1ncc(/C=C(\Cc2cccs2)C(=O)O)n1Cc1ccc(C(=O)O)cc1 [Eprosartan, (E)-α-[[2-butyl-1-[(4-carboxyphenyl)methyl]-1H-imidazol-5-yl]methylene]-2-thiophenepropanoic acid]
Potential Dosage Adjustment (%) of (S)-amlodipine malate (adjustment factor) (rats [3]): 24%

CCCCC1=NC2(CCCC2)C(=O)N1Cc1ccc(-c2ccccc2-c2nnn[nH]2)cc1 [Irbesartan, 2-butyl-3-[[2′-(1H-tetrazol-5-yl)[1,1′-bephenyl]-4-yl]methyl]-1,3-diazaspiro[4,4]non-1-en-4-one]
Potential Dosage Adjustment (%) of (S)-amlodipine malate (adjustment factor) (rats [3]): 23%

CCCCc1nc(Cl)c(CO)n1Cc1ccc(-c2ccccc2-c2nnn[nH]2)cc1 [Losartan, 2-butyl-4-chloro-1-[[2′-(1H-tetrazol-5-yl)[1,1′-biphenyl]-4-yl]methyl]-1H-imidazole-5-methanol]
Potential Dosage Adjustment (%) of (S)-amlodipine malate (adjustment factor) (rats [3]): 15%

CCCc1nc2c(C)cc(-c3nc4ccccc4n3C)cc2n1Cc1ccc(-c2ccccc2C(=O)O)cc1 [Telmisartan, 4′-[(1,4′-dimethyl-2′-propyl[2,6′-bi-1H-benzimidazol]-1′-yl)methyl]-[1,1′-biphenyl]-2-carboxylic acid]
dose response curve of ARB plus (S)-amlodipine malate relative to (S)-amlodipine malate alone (rats [3]): offset

CCCCC(=O)N(Cc1ccc(-c2ccccc2-c2nnn[nH]2)cc1)[C@H](C(=O)O)C(C)C [Valsartan, N-(1-oxopentyl)-N-[[2′-(1H-tetrazol-5-yl)[1,1′-biphenyl]-4-yl]methyl]-L-valine]
time to maximum hypotensive effect post-injection (rats [1]): five
ED30 (dose causing 30% of the maximal drop in blood pressure produced by sodium nitroprusside) (rats [2]; [4]): 0.229 mg/kg
dose response curve of ARB plus (S)-amlodipine malate relative to (S)-amlodipine malate alone (rats [3]): greatest leftward shift
Potential Dosage Adjustment (%) of (S)-amlodipine malate (adjustment factor) (rats [3]): 32%
